Patent US10457637B2, “Benzenesulfonamide derivatives as inverse agonists of retinoid-related orphan receptor gamma (RORγ(T))” (GALDERMA RESEARCH & DEVELOPMENT, priority 2014, dated 2019)

Molecular target: ROR gamma ligand-binding domain (hRORg) (Homo sapiens (Human), UniProt P51449)
Experiment: GAL4-RORγ transactivation (luciferase reporter, HG5LN HeLa line)
Type: cell-based
Details: 18 hours incubation
Text: GAL4-RORγ Transactivation
The RORγ transactivation model was developed from the line HG5LN, which is a HeLa line that stably expresses a luciferase reporter gene controlled by a pentamer of the GAL4 recognition domain of yeast and of a β-globin promoter. The HG5LN line was stably transfected by the DNA-binding domain (DBD) of GAL4 fused to the ROR gamma ligand-binding domain (LBD). Molecules that inhibit the ROR gamma constitutive activity reduce the luciferase expression, thus leading to a reduction in the emitted luminescence.
The cells are seeded in 384-well plates (5000 cells in 45 μL/well of culture medium containing 10% fetal calf serum) and incubated for 4 hours at 37° C., 5% CO2. 5 μL of the test molecules (compounds described in the tables described above) are then added to each well and the plates are incubated for 18 hours at a temperature of 37° C. under 5% of CO2. 20 μL of luciferase substrate (Promega) are added to each well and the luminescence emitted is read by a microplate reader.
The luminescence units (“RLU”) are normalized by positive controls (“POS” containing a saturated concentration of benzenesulfonamide, N-(2,2,2-trifluoroethyl)-N-[4-[2,2,2-trifluoro-1-hydroxy-1-(trifluoromethyl)ethyl]phenyl]) and negative controls (“NEG” containing DMSO): % inhibition=((RLU−NEG)*100)/(POS−NEG). The IC50 values are calculated from a 4-parameter logistic model using the XLFit software (IDBS).

Sequence of ROR gamma ligand-binding domain (hRORg) (P51449 269-508): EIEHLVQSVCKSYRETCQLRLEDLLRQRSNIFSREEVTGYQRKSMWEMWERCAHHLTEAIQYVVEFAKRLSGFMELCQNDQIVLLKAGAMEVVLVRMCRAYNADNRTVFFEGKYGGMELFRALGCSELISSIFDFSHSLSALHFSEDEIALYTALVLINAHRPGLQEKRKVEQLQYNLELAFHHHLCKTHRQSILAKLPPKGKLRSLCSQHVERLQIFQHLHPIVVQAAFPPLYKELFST

CCc1ccc(N(CC(C)C)S(=O)(=O)c2ccc3c(c2)[S+]([O-])C(C)(C)N3CC2CCOCC2)cc1 (stereo not shown) [compound 74, 2,2-dimethyl-1-oxo-3-(tetrahydropyran-4-ylmethyl)-2,3-dihydro-1H-1λ^4-benzothiazole-6-sulfonic acid (4-ethylphenyl)isobutylamide] gave an IC50 of 0.1 to 1 µM.
With CCc1ccc(N(CC(C)C)S(=O)(=O)c2ccc3c(c2)[S+]([O-])CN3CC2CCOCC2)cc1 (stereo not shown) [compound 75, 1-oxo-3-(tetrahydropyran-4-ylmethyl)-2,3-dihydro-1H-1λ^4-benzothiazole-6-sulfonic acid (4-ethylphenyl)isobutylamide] the IC50 was > 1 µM.
CCc1ccc(N(CC(C)C)S(=O)(=O)c2ccc3c(c2)S(=N)(=O)CN3CC2CCOCC2)cc1 (stereo not shown) [compound 76, 1-imino-1-oxo-3-(tetrahydropyran-4-ylmethyl)-2,3-dihydro-1H-1λ^6-benzothiazole-6-sulfonic acid (4-ethylphenyl)isobutylamide] was tested, and the IC50 was > 1 µM.
CCc1ccc(N(CC(C)C)S(=O)(=O)c2ccc(OCc3ccnc(OC)c3)c(S(C)(=N)=O)c2)cc1 (stereo not shown) [compound 77, N-(4-ethylphenyl)-N-isobutyl-4-((2-methoxypyridin-4-yl)methoxy)-3-(S-methylsulfonimidoyl)benzenesulfonamide] was tested, and the IC50 was > 1 µM.
In the case of CCc1ccc(N(CC(C)C)S(=O)(=O)c2ccc(OC[C@H]3CNC(=O)O3)c(S(C)(=N)=O)c2)cc1 (stereo partly drawn) [compound 79, N-(4-ethylphenyl)-N-isobutyl-3-(S-methylsulfonimidoyl)-4-(((R)-2-oxooxazolidin-5-yl)methoxy)benzenesulfonamide], the IC50 is reported as > 1 µM.
For CCc1ccc(N(CC(C)C)S(=O)(=O)c2ccc(Oc3ccc(C#N)cc3)c(S(C)(=N)=O)c2)cc1 (stereo not shown) [compound 80, 4-(4-cyanophenoxy)-N-(4-ethylphenyl)-N-isobutyl-3-(S-methylsulfonimidoyl)benzenesulfonamide], the IC50 was > 1 µM.
In the case of CCc1ccc(N(CC(C)C)S(=O)(=O)c2ccc(NCC3CNC(=O)O3)c(S(C)(=N)=O)c2)cc1 (stereo not shown) [compound 82, N-(4-ethylphenyl)-N-isobutyl-3-(S-methylsulfonimidoyl)-4-(((2-oxooxazolidin-5-yl)methyl)amino)benzenesulfonamide], the IC50 is reported as 0.1 to 1 µM.
CCc1ccc(N(CC(C)C)S(=O)(=O)c2ccc(NC3CCS(=O)(=O)CC3)c(S(C)(=N)=O)c2)cc1 (stereo not shown) [compound 83, 4-((1,1-dioxidotetrahydro-2H-thiopyran-4-yl)amino)-N-(4-ethylphenyl)-N-isobutyl-3-(S-methylsulfonimidoyl)benzenesulfonamide] was tested, and the IC50 was > 1 µM.
For CCc1ccc(N(CC(C)C)S(=O)(=O)c2ccc(NCC3CCN(C(C)=O)CC3)c(S(C)(=N)=O)c2)cc1 (stereo not shown) [compound 84, 4-(((1-acetylpiperidin-4-yl)methyl)amino)-N-(4-ethylphenyl)-N-isobutyl-3-(S-methylsulfonimidoyl)benzenesulfonamide], the IC50 was > 1 µM.
CCc1ccc(N(CC(C)C)S(=O)(=O)c2ccc(NC3CCC(=O)NC3)c(S(C)(=N)=O)c2)cc1 (stereo not shown) [compound 85, N-(4-ethylphenyl)-N-isobutyl-3-(S-methylsulfonimidoyl)-4-((6-oxopiperidin-3-yl)amino)benzenesulfonamide] was tested, and the IC50 was > 1 µM.
With CCc1ccc(N(CC(C)C)S(=O)(=O)c2ccc(NC3CCS(=O)(=O)C3)c(S(C)(=N)=O)c2)cc1 (stereo not shown) [compound 86, 4-((1,1-dioxidotetrahydrothiophen-3-yl)amino)-N-(4-ethylphenyl)-N-isobuytl-3-(S-methylsulfonimidoyl)benzenesulfonamide] the IC50 was 0.1 to 1 µM.
For CCc1ccc(N(CC(C)C)S(=O)(=O)c2ccc(NCc3nonc3C)c(S(C)(=N)=O)c2)cc1 (stereo not shown) [compound 88, N-(4-ethylphenyl)-N-isobutyl-4-(((4-methyl-1,2,5-oxadiazol-3-yl)methyl)amino)-3-(S-methylsulfonimidoyl)benzenesulfonamide], the IC50 was > 1 µM.
CCc1ccc(N(CC(C)C)S(=O)(=O)c2ccc(NCC3CN(C(=O)OC)C3)c(S(C)(=N)=O)c2)cc1 (stereo not shown) [compound 89, methyl 3-(((4-(N-(4-ethylphenyl)-N-isobutylsulfamoyl)-2-(S-methylsulfonimidoyl)phenyl)amino)methyl)azetidine-1-carboxylate] was tested, and the IC50 was > 1 µM.
For CCc1ccc(N(CC(C)C)S(=O)(=O)c2ccc(NCc3ccnc(C)c3)c(S(C)(=N)=O)c2)cc1 (stereo not shown) [compound 90, N-(4-ethylphenyl)-N-isobutyl-4-(((2-methylpyridin-4-yl)methyl)amino)-3-(S-methylsulfonimidoyl)benzenesulfonamide], the IC50 was > 1 µM.
With CCc1ccc(N(CC(C)C)S(=O)(=O)c2ccc(NCC3CCN(C(=O)OC)CC3)c(S(C)(=N)=O)c2)cc1 (stereo not shown) [compound 93, methyl 4-(((4-(N-(4-ethylphenyl)-N-isobutylsulfamoyl)-2-(S-methylsulfonimidoyl)phenyl)amino)methyl)piperidine-1-carboxylate] the IC50 was > 1 µM.
In the case of CCc1ccc(N(CC(C)C)S(=O)(=O)c2ccc(NCC3CCN(C(=O)OC)C3)c(S(C)(=N)=O)c2)cc1 (stereo not shown) [compound 94, methyl 3-(((4-(N-(4-ethylphenyl)-N-isobutylsulfamoyl)-2-(S-methylsulfonimidoyl)phenyl)amino)methyl)pyrrolidine-1-carboxylate], the IC50 is reported as > 1 µM.
With CCc1ccc(N(CC(C)C)S(=O)(=O)c2ccc(NCC3CC4(COC4)C3)c(S(C)(=N)=O)c2)cc1 (stereo not shown) [compound 95, 4-(((2-oxaspiro[3.3]heptan-6-yl)methyl)amino)-N-(4-ethylphenyl)-N-isobutyl-3-(S-methylsulfonimidoyl)benzenesulfonamide] the IC50 was 0.1 to 1 µM.
In the case of CCc1ccc(N(CC(C)C)S(=O)(=O)c2ccc(NCC3CCNC(=O)C3)c(S(C)(=N)=O)c2)cc1 (stereo not shown) [compound 96, 4-N-(4-ethylphenyl)-N-isobutyl-3-(S-methylsulfonimidoyl)-4-(((2-oxopiperidin-4-yl)methyl)amino)benzenesulfonamide], the IC50 is reported as > 1 µM.
In the case of CCc1ccc(N(CC(C)C)S(=O)(=O)c2ccc(NCc3c(C)noc3C)c(S(C)(=N)=O)c2)cc1 (stereo not shown) [compound 97, 4-(((3,5-dimethylisoxazol-4-yl)methyl)amino)-N-(4-ethylphenyl)-N-isobutyl-3-(S-methylsulfonimidoyl)benzenesulfonamide], the IC50 is reported as 0.1 to 1 µM.
With CCc1ccc(N(CC(C)C)S(=O)(=O)c2ccc(NCC3CCN(C(C)=O)C3)c(S(C)(=N)=O)c2)cc1 (stereo not shown) [compound 100, 4-(((1-acetylpyrrolidin-3-yl)methyl)amino)-N-(4-ethylphenyl)-N-isobutyl-3-(S-methylsulfonimidoyl)benzenesulfonamide] the IC50 was > 1 µM.
In the case of CCc1ccc(N(CC(C)C)S(=O)(=O)c2ccc(NC[C@@H]3CNC(=O)O3)c(S(C)(=N)=O)c2)cc1 (stereo partly drawn) [compound 105, N-(4-ethylphenyl)-N-isobutyl-3-(S-methylsulfonimidoyl)-4-((((R)-2-oxooxazolidin-5-yl)methyl)amino)benzenesulfonamide], the IC50 is reported as > 1 µM.
With CCc1ccc(N(CC(C)C)S(=O)(=O)c2ccc(NC[C@H]3CNC(=O)O3)c(S(C)(=N)=O)c2)cc1 (stereo partly drawn) [compound 106, N-(4-ethylphenyl)-N-isobutyl-3-(S-methylsulfonimidoyl)-4-((((S)-2-oxooxazolidin-5-yl)methyl)amino)benzenesulfonamide] the IC50 was > 1 µM.
With CCc1ccc(N(CC(C)C)S(=O)(=O)c2ccc(N3CCCC4(COC4)C3)c(S(C)(=N)=O)c2)cc1 (stereo not shown) [compound 109, N-(4-ethylphenyl)-N-isobutyl-3-(S-methylsulfonimidoyl)-4-(2-oxa-6-azaspiro[3.5]nonan-6-yl)benzenesulfonamide] the IC50 was > 1 µM.
In the case of CCc1ccc(N(CC(C)C)S(=O)(=O)c2ccc(N3CC4(CN(C(=O)OC(C)(C)C)C4)C3)c(S(C)(=N)=O)c2)cc1 (stereo not shown) [compound 110, tert-butyl 6-(4-(N-(4-ethylphenyl)-N-isobutylsulfamoyl)-2-(S-methylsulfonimidoyl)phenyl)-2,6-diazaspiro[3.3]heptane-2-carboxylate], the IC50 is reported as > 1 µM.
CCc1ccc(N(CC(C)C)S(=O)(=O)c2ccc(N3CC4(COC4)C3)c(S(C)(=N)=O)c2)cc1 (stereo not shown) [compound 111, N-(4-ethylphenyl)-N-isobutyl-3-(S-methylsulfonimidoyl)-4-(2-oxa-6-azaspiro[3.3]heptan-6-yl)benzenesulfonamide] was tested, and the IC50 was < 0.1 µM.
CCc1ccc(N(CC(C)C)S(=O)(=O)c2ccc(N3CC4(C3)CS(=O)(=O)C4)c(S(C)(=N)=O)c2)cc1 (stereo not shown) [compound 113, 4-(2,2-dioxido-2-thia-6-azaspiro[3.3]heptan-6-yl)-N-(4-ethylphenyl)-N-isobutyl-3-(S-methylsulfonimidoyl)benzenesulfonamide] gave an IC50 of 0.1 to 1 µM.
CCc1ccc(N(CC(C)C)S(=O)(=O)c2ccc(N3CCC4(CC3)COC4)c(S(C)(=N)=O)c2)cc1 (stereo not shown) [compound 114, N-(4-ethylphenyl)-N-isobutyl-3-(S-methylsulfonimidoyl)-4-(2-oxa-7-azaspiro[3.5]nonan-7-yl)benzenesulfonamide] gave an IC50 of 0.1 to 1 µM.
CCc1ccc(N(CC(C)C)S(=O)(=O)c2ccc(N3C[C@H]4C[C@@H]3CO4)c(S(C)(=N)=O)c2)cc1 (stereo partly drawn) [compound 115, 4-((1R,4R)-2-oxa-5-azabicyclo[2.2.1]heptan-5-yl)-N-(4-ethylphenyl)-N-isobutyl-3-(S-methylsulfonimidoyl)benzenesulfonamide] was tested, and the IC50 was 0.1 to 1 µM.
